Results published in ChEMBL document CHEMBL1909046, “DrugMatrix in vitro pharmacology data”.

Tests used:
[1] = biological target: Cytochrome P450 2E1 (Homo sapiens, UniProt P05181); conditions: bti-tn-5b1-4; also: in other assays of this panel Not Active means under 50% inhibition at 10 µM
[2] = biological target: Cytochrome P450 2C9 (Homo sapiens, UniProt P11712); conditions: bti-tn-5b1-4; also: in other assays of this panel Not Active means under 50% inhibition at 10 µM
[3] = biological target: Aldo-keto reductase family 1 member B1 (Rattus norvegicus, UniProt P07943); assay: biochemical; type: tissue-based, Lens of camera-type eye;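 also: inhibition of aldose reductase enzyme activity, measured with DL-glyceraldehyde as the substrate; in other assays of this panel Not Active means under 50% inhibition at 10 µM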
[4] = biological target: Tyrosine-protein kinase Lck (Homo sapiens, UniProt P06239); assay: DRUGMATRIX: Protein Tyrosine Kinase, LCK enzyme inhibition (substrate: Poly(Glu:Tyr)); type: cell-based, Insect cells; conditions: insect cells; Not Active = under 50% inhibition at 10 µM
[5] = DRUGMATRIX: Leukotriene, BLT (LTB4) radioligand binding (ligand: [3H]LTB4); type: cell membranes, Membrane; conditions: u-937; Not Active = under 50% inhibition at 10 µM
[6] = biological target: T1, Glucocorticoid receptor (Homo sapiens, UniProt P04150); conditions: hela s3; also: in other assays of this panel Not Active means under 50% inhibition at 10 µM
T1 sequence (P04150 whole entry): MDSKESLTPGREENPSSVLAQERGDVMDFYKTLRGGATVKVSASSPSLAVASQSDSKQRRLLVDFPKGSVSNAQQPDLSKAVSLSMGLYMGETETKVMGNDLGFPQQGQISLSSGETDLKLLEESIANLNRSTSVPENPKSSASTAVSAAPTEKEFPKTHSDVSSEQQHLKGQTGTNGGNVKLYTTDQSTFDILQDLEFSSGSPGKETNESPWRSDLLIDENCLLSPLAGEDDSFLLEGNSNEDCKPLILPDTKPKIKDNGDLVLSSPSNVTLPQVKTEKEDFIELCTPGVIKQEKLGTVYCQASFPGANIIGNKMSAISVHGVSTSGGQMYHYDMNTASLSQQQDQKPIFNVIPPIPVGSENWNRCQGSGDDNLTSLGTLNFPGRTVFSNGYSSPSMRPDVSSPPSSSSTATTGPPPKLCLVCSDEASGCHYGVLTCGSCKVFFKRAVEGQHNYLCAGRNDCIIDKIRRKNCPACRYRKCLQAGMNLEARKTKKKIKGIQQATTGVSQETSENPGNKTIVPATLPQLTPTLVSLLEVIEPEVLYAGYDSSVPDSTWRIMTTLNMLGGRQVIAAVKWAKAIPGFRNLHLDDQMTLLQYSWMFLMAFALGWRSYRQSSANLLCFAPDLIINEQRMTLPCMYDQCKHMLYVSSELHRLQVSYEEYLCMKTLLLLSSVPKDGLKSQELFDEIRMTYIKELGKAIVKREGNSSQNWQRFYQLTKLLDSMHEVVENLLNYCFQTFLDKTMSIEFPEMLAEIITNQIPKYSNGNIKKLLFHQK

[7] = biological target: T2, 3-hydroxy-3-methylglutaryl-coenzyme A reductase (Homo sapiens, UniProt P04035); set-up: species or system Escherichia coli
T2 sequence (P04035 whole entry): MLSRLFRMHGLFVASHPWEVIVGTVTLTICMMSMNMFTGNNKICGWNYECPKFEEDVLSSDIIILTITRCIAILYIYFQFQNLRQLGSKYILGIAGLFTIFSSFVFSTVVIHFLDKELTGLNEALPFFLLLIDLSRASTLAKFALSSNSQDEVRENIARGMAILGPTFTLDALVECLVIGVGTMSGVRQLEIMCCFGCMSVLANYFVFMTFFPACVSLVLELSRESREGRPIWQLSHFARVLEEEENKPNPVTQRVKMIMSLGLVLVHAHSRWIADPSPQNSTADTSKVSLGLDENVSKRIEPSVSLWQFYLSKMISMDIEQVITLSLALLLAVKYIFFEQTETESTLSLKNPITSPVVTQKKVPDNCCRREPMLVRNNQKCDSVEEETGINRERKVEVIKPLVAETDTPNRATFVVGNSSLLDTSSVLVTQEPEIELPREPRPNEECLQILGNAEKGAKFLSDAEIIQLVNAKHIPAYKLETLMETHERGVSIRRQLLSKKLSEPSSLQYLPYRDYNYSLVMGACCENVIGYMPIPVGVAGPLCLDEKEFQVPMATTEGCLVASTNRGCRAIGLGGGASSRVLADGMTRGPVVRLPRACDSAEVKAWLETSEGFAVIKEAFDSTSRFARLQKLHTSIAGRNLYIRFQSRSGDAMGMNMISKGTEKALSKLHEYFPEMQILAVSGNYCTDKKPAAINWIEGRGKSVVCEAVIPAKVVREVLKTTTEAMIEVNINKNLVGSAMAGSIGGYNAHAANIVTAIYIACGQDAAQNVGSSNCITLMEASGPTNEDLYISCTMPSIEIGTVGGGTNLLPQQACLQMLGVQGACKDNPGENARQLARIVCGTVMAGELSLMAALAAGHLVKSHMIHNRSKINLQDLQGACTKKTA

Cytochrome P450 2C9, sequence (P11712 whole entry): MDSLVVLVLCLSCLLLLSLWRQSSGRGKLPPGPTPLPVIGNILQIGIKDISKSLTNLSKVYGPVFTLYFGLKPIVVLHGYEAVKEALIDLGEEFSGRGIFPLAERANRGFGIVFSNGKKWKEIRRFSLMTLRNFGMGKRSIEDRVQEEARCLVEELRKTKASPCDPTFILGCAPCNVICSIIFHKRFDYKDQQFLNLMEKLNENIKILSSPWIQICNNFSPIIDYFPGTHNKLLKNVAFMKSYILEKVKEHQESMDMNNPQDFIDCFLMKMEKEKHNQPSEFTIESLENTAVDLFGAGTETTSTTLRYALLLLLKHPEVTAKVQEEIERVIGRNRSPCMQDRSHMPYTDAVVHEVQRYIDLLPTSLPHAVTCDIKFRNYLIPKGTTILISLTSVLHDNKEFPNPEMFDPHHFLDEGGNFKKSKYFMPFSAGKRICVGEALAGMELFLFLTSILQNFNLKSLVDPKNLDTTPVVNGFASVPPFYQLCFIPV
Tyrosine-protein kinase Lck, sequence (P06239 whole entry): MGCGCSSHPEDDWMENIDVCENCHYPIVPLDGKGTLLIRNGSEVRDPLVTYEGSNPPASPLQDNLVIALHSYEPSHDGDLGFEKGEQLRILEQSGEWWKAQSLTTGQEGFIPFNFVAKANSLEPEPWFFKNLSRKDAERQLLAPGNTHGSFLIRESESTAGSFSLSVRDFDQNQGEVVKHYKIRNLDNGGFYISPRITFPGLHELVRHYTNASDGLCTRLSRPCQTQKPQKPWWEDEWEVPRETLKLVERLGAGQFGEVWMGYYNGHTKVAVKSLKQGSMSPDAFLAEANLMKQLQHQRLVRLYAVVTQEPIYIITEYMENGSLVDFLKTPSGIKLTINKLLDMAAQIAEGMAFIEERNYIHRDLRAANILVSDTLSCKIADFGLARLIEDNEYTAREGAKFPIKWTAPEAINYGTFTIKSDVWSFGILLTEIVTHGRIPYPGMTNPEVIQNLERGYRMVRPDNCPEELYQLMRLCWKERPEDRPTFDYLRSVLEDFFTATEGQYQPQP
Cytochrome P450 2E1, sequence (P05181 whole entry): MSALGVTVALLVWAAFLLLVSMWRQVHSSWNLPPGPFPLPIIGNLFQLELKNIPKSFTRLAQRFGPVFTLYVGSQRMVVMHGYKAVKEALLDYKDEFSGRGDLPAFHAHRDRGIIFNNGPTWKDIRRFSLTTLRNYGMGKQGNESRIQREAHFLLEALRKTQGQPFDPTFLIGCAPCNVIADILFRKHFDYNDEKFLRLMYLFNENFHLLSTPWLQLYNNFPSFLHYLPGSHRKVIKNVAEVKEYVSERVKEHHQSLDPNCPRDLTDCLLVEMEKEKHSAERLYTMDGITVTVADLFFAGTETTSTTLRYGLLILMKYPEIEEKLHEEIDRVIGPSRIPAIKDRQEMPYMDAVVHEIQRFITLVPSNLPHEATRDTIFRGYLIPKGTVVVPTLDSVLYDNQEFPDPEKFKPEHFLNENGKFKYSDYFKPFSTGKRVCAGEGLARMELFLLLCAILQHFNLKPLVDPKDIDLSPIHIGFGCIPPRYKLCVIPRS

C=C(C)C1(O)OC(=O)C=C1OC (centres undefined) [PENICILLIC ACID]
Not Active: IC50 [1] | Ki [1] | IC50 [2] | Ki [2] | IC50 [3] | IC50 [4] | IC50 [5] | Ki [5] | IC50 [6] | IC50 [7]

CN(Cc1ccc(C(C)(C)C)cc1)Cc1cccc2ccccc12 [BUTENAFINE]
Not Active: IC50 [1] | Ki [1] | IC50 [2] | Ki [2] | IC50 [3] | IC50 [4] | IC50 [5] | Ki [5] | IC50 [6] | IC50 [7]

NC(=O)N1c2ccccc2CCc2ccccc21
Not Active: IC50 [1] | Ki [1] | IC50 [2] | Ki [2] | IC50 [3] | IC50 [4] | IC50 [5] | Ki [5] | IC50 [6] | IC50 [7]

COc1ccc(C[C@H]2NC[C@H](O)[C@H]2OC(C)=O)cc1 [ANISOMYCIN]
Not Active: IC50 [1] | Ki [1] | IC50 [2] | Ki [2] | IC50 [3] | Ki [3] | IC50 [4] | Ki [4] | IC50 [5] | Ki [5] | IC50 [6] | Ki [6] | IC50 [7] | Ki [7]

CCn1cc(C(=O)O)c(=O)c2cc(F)c(N3CCNCC3)cc21 [NORFLOXACIN]
Not Active: IC50 [1] | Ki [1] | IC50 [2] | Ki [2] | IC50 [3] | IC50 [4] | IC50 [5] | Ki [5] | IC50 [6] | IC50 [7]

CCC1(c2ccc(N)cc2)CCC(=O)NC1=O (centres undefined) [AMINOGLUTETHIMIDE]
Not Active: IC50 [1] | Ki [1] | IC50 [2] | Ki [2] | IC50 [3] | IC50 [4] | IC50 [5] | Ki [5] | IC50 [6] | IC50 [7]

Cc1ccc(/N=C/N(C)/C=N/c2ccc(C)cc2C)c(C)c1 [AMITRAZ]
Not Active: IC50 [1] | Ki [1] | IC50 [2] | Ki [2] | IC50 [3] | IC50 [4] | IC50 [5] | Ki [5] | IC50 [6] | IC50 [7]

Cc1ccc(N(CC2=NCCN2)c2cccc(O)c2)cc1 [PHENTOLAMINE]
Not Active: IC50 [1] | Ki [1] | IC50 [2] | Ki [2] | IC50 [3] | IC50 [4] | IC50 [5] | Ki [5] | IC50 [6] | IC50 [7]

CNNCc1ccc(C(=O)NC(C)C)cc1 [PROCARBAZINE]
Not Active: IC50 [1] | Ki [1] | IC50 [2] | Ki [2] | IC50 [3] | IC50 [4] | IC50 [5] | Ki [5] | IC50 [6] | IC50 [7]

OC(Cn1cncn1)(Cn1cncn1)c1ccc(F)cc1F [FLUCONAZOLE]
Not Active: IC50 [1] | Ki [1] | IC50 [2] | Ki [2] | IC50 [3] | IC50 [4] | IC50 [5] | Ki [5] | IC50 [6] | IC50 [7]

Cc1cc(C2CCCCC2)n(O)c(=O)c1 [CICLOPIROX]
Not Active: IC50 [1] | Ki [1] | IC50 [2] | Ki [2] | IC50 [3] | IC50 [4] | IC50 [5] | Ki [5] | IC50 [6] | IC50 [7]

CCOc1ccc(NC(C)=O)cc1 [PHENACETIN]
Not Active: IC50 [1] | Ki [1] | IC50 [2] | Ki [2] | IC50 [3] | IC50 [4] | IC50 [5] | Ki [5] | IC50 [6] | IC50 [7]

NC1=NC(=O)C(c2ccccc2)O1 (centres undefined) [PEMOLINE]
Not Active: IC50 [1] | Ki [1] | IC50 [2] | Ki [2] | IC50 [3] | IC50 [4] | IC50 [5] | Ki [5] | IC50 [6] | IC50 [7]

C[C@H](CCC(=O)O)[C@H]1CC[C@H]2[C@@H]3[C@H](O)C[C@@H]4C[C@H](O)CC[C@]4(C)[C@H]3C[C@H](O)[C@]12C [CHOLIC ACID]
Not Active: IC50 [1] | Ki [1] | IC50 [2] | Ki [2] | IC50 [3] | IC50 [4] | IC50 [5] | Ki [5] | IC50 [6] | IC50 [7]

C[C@H](CS)C(=O)N1CCC[C@H]1C(=O)O [CAPTOPRIL]
Not Active: IC50 [1] | Ki [1] | IC50 [2] | Ki [2] | IC50 [3] | IC50 [4] | IC50 [5] | Ki [5] | IC50 [6] | IC50 [7]

CC(O)CO (centres undefined) [PROPYLENE GLYCOL]
Not Active: IC50 [1] | Ki [1] | IC50 [2] | Ki [2] | IC50 [3] | IC50 [4] | IC50 [5] | Ki [5] | IC50 [6] | IC50 [7]

Cc1c(O)c(=O)ccn1C [DEFERIPRONE]
Not Active: IC50 [1] | Ki [1] | IC50 [2] | Ki [2] | IC50 [3] | IC50 [4] | IC50 [5] | Ki [5] | IC50 [6] | IC50 [7]

C1CCC(C(CC2CCCCN2)C2CCCCC2)CC1 (centres undefined) [PERHEXILINE]
Not Active: IC50 [1] | Ki [1] | IC50 [2] | Ki [2] | IC50 [3] | IC50 [4] | IC50 [5] | Ki [5] | IC50 [6] | IC50 [7]

c1ccc2c(c1)c1cccc3ccc4cccc2c4c31 [BENZO[E]PYRENE]
Not Active: IC50 [1] | Ki [1] | IC50 [2] | Ki [2] | IC50 [3] | IC50 [4] | IC50 [5] | Ki [5] | IC50 [6] | IC50 [7]

CNCCc1ccccn1 [BETAHISTINE]
Not Active: IC50 [1] | Ki [1] | IC50 [2] | Ki [2] | IC50 [3] | IC50 [4] | IC50 [5] | Ki [5] | IC50 [6] | IC50 [7]

Cc1ccccc1N1C(=O)c2cc(S(N)(=O)=O)c(Cl)cc2NC1C (centres undefined) [METOLAZONE]
Not Active: IC50 [1] | Ki [1] | IC50 [2] | Ki [2] | IC50 [3] | IC50 [4] | IC50 [5] | Ki [5] | IC50 [6] | IC50 [7]

O=C1CC[C@@H](N2C(=O)c3ccccc3C2=O)C(=O)N1
Not Active: IC50 [1] | Ki [1] | IC50 [2] | Ki [2] | IC50 [3] | IC50 [4] | IC50 [5] | Ki [5] | IC50 [6] | IC50 [7]
